# Test results from patent publication US20190175577A1, “METHOD FOR TREATING AMYOTROPHIC LATERAL SCLEROSIS” (UNIVERSITY OF MIAMI, priority 2017, published 2019).
# What was measured:
# [1] = tested on: ALS caused by SOD1 mutations; experiment: randomized, double-blind placebo controlled phase II trial: efficacy (survival, ALSFRS-R, CAFS); type: in vivo, human; conditions: for participants alive (and without PAV or tracheostomy): at 12 months
# Procedure: (§1) Provided herein are the details of a completed, randomized, double-blind placebo controlled phase II trial. The trial was conducted at two sites and three academic medical centers in the United States. An independent medical monitor completed regular review of laboratory reports and adverse events (AEs), as well as real-time review of serious adverse events (SAEs). Eligibility criteria (FIG. 1) aimed to enroll, from across the U.S. and Canada, a population relatively early in the course of ALS caused by SOD1 mutations associated with rapidly progressive disease.
# (§2) Randomization (1:1 to Arimoclomol or matching placebo) was stratified by Riluzole use and in block size of two within each stratum, and implemented using a central web-based electronic data capture (EDC) system managed by the Neurological Clinical Research Institute Data Management Center at MGH. The randomization schedule, generated by a study statistician, was provided to each research pharmacy. At randomization, the EDC assigned a subject identification number, which the site-coordinator submitted to the research pharmacy for drug dispensing. Encapsulated placebo was matched in color and appearance to active drug. Except for the research pharmacists, pharmacy monitors, and study statisticians, all other personnel and study participants were blinded to treatment assignments.
# The first participants were randomized and administered 100 mg of Arimoclomol three times daily. After enrollment of the first 16 participants (of whom 8 were on Arimoclomol, including 1 subject subsequently excluded per protocol), the dosage was increased to 200 mg administered three times daily for all active participants (which for the Arimoclomol group included three subjects initially started at 100 mg administered three times daily), and all newly enrolled participants received 200 mg three times a day. All data were analyzed following the intent-to-treat principle.
# Assessments were performed in person only at Baseline and Month-2, with remote assessments planned for all other visits. Neurological examination, motor unit number estimation (MUNE), and slow vital capacity (SVC) could only be performed in person. Other assessments, conducted at all visits (in person and remotely), included: vital signs; blood and urine for safety labs; ALSFRS-R (revised ALS Functional Rating Scale), which has been validated for telephone administration; and the forced expiratory volume in 6-seconds (FEV6). Miano et al., Amyotrophic Lateral Sclerosis And Other Motor Neuron Disorders: Official Publication Of The World Federation Of Neurology, Research Group On Motor Neuron Diseases 2004; 5:235-239; Vandevoorde et al., Chest 2005; 127:1560-1564. In addition, AEs, concomitant medications, study drug dose management, use of ventilatory support, and key study events were recorded at all visits.
# Operationalization of remote assessments posed logistical challenges that required the introduction of two innovative features: (1) the collection of vital signs and blood/urine for safety labs in participants' homes, this was accomplished using the services of a mobile medical provider; and (2) the use of FEV6 as the principal measure of respiratory function. The key advantage of FEV6 over SVC is that FEV6 may be self-administered by the participant using a low-cost portable device (e.g., Piko-6, nSpireHealth, Inc.). […] Use of the FEV6 allowed for remote assessment of respiratory function, which otherwise would not have been available for collection in this trial. Reproducibility and normative data for FEV6 are established. Hankinson et al., Chest 2003; 124:1805-1811.
# For efficacy, the principal outcome measure was PAV- and tracheostomy-free survival time, calculated from baseline to PAV (defined as first of seven consecutive days when PAV was used >22 hours/day) or tracheostomy, date of death (if no PAV or tracheostomy), or date of last available follow-up/study contact (if still PAV- and tracheostomy-free by then). […]
# [2] = tested on: ALS caused by SOD1 mutations; set-up: species or system human; conditions: in vivo
# Procedure: as §1
# as §2, with “Encapsulated placebo was matched in color and appearance to active drug. Except for the research pharmacists, pharmacy monitors, and study statisticians, all other personnel and study participants were blinded to treatment assignments.” left out
# The first participants were randomized and administered 100 mg of Arimoclomol three times daily. […] All data were analyzed following the intent-to-treat principle.
# Assessments were performed in person only at Baseline and Month-2, with remote assessments planned for all other visits. […] In addition, AEs, concomitant medications, study drug dose management, use of ventilatory support, and key study events were recorded at all visits.
# The primary endpoint of safety and tolerability was based on the frequency of AEs, abnormal vital signs, and abnormal laboratory studies above or below pre-defined alert levels. […] In summarizing AEs: (a) if a participant experienced multiple occurrences of the same event, only the occurrence with the worst severity (or highest degree of relatedness to study drug) was counted; and (b) CTCAE events were further classified into subgroups (“AE type”), e.g., pneumonia and bronchitis were both classified as upper/lower respiratory infection.
smiles,measurement,setting,value
[O-][n+]1cccc(/C(Cl)=N/OC[C@H](O)CN2CCCCC2)c1 [Arimoclomol],CAFS potential treatment benefit vs placebo,[1]; 95% CI: −2.50 to 11.64,4.57 points
same,"ALSFRS-R rate of decline, average (±SE)",[1]; A4V subgroup,2.6±0.5 points/month
same,treatment difference in ALSFRS-R rate of decline vs placebo,"[1]; A4V subgroup, 95% CI: −0.28 to 2.24, p=0.12",0.98 points/month
same,"win ratio, participant-to-participant comparison between the two groups",[1]; CAFS,1.6924
same,"unadjusted hazard ratio (HR), PAV- and tracheostomy-free survival","[1]; Cox proportional hazards model, Arimoclomol compared to control, 95% CI: 0.29-1.48, p=0.33",0.67
same,hazard ratio (HR) adjusted for baseline ALSFRS-R and Riluzole,"[1]; Cox proportional hazards model, 95% CI: 0.32-1.80, p=0.55",0.77
same,"treatment difference in ALSFRS-R rate of decline, Vonesh model","[1]; Vonesh shared parameter model, 95% CI: −0.33 to 1.86, p=0.16",0.77±0.54 points/month
same,treatment difference in ALSFRS-R rate of decline vs placebo,"[1]; all participants, 95% CI: −0.63 to 1.63, p=0.37",0.5 points/month
same,"ALSFRS-R rate of decline, average (±SE)","[1]; all participants, mixed model",2.5±0.4 points/month
same,participants alive (and without PAV or tracheostomy),"[1]; all participants, Kaplan-Meier",34%
same,participants alive (and without PAV or tracheostomy),[1]; subgroup of A4V participants,29%
same,"direct effect of treatment on survival, Vonesh model",[1]; p=0.62,not significant
same,"CAFS rank score, average (±SE)",[1]; rank scores range from 1 (worst) to 36 (best),20.9±2.5
same,ALSFRS-R difference over a one-year period,"[1]; translated from treatment difference of 0.5-1.0 points/month, not statistically significant",6-12 points
same,discontinuation because of adverse event,[2],A single participant stopped Arimoclomol because of a skin rash
same,relatedness of SAEs to study drug,[2],none of which were considered related to study drug
same,serious adverse events (SAEs) reported,[2],7
